One data set has as its system RPTE/hTERT cells. In words: Cell viability assay, CellTiter-Blue fluorescence. The protocol:
RPTE/hTERT cells were treated with MAT2A inhibitors at increasing concentrations for 48 hrs and assayed for cell viability using CellTiter-Blue fluorescence. Experiments were conducted using biological triplicates.
Experiment was conducted using biological triplicates.
Cell viability was assessed using the Cell-Titer-Blue assay (Promega), following manufacturers guidelines.
Background: The colour change of resazurin is a common sign of viable cells or microbes.

The subject of a further data set is Zika African strain. In words: Western blot of Zika E protein in VERO E6 cells, African strain. To be noted: 20 μM, MOI >10, 48 hrs. Format: cell-based, Zika virus. The protocol: (§1) (B) Zika: VERO E6 cells were plated. The following day 20 μM PF-9366 or DMSO control was added to media. After 3 hrs cells were infected with Zika African strain, American Strain or Mock infected (MOI >10). After 48 hrs cells were harvested by scraping, pelleted and lysed into lysis buffer. Western blot was then conducted on the lysed cells. Protein embedded SDS-PAGE gels were transferred to membranes overnight and then probed for Zika E protein and GAPDH as a control.
(§2) For Flavivirus infections VERO E6 cells were infected with either African (Afn) or American (Amer) Zika at a multiplicity of infection (MOI) greater than 10, diluted in appropriate medium. At 1 hour post infection (hpi) medium was removed, cells were washed twice with phosphate-buffered saline (PBS), and fresh medium was added. At 48 hpi cells were either harvested for western blot.
(§3) Cell lysate preparation and western blots were performed as described in Ren et al. (J Gen Virol. 2012 February; 93 (Pt 2): 319-329). Primary antibodies used were ab53977 (VP1), PAb416 (LTAg), sc-166452 (MAT2A/1A), ab110226 (VP16), sc-53070 (ICP0), anti-Zika E Protein, and either anti-GAPDH or anti-tubulin as a loading control, followed by IRDye 680LT-, or IRDye 800CW-conjugated secondary antibodies. Imaging was performed using the LI-COR Odyssey Infrared Imaging system. Quantification was performed using LI-COR Image Studio Software. […]

Data set [1] has as its system Herpes Simplex Virus-1 (HSV-1). Kind of data set: Western blot of HSV-1 ICP0 and VP16 proteins in HaCaT cells. To be noted: 20 μM, MOI 10, 16 hrs. Type of data set: cell-based. As to the method: FIG. 9: Inhibition of MAT2A with PF-9366 reduces Herpes Simplex Virus-1 (HSV-1) virion assembly Immortalised keratinocyte (HaCaT) cells were plated and treated with 20 μM PF-9366 or DMSO control. After 3 hrs cells were infected with HSV-1 (MOI 10). After 16 hrs cells were harvested by scraping and either pelleted for western blot or freeze/thawed for titration. To titre: VERO cells were plated and the following day infected with 10-fold dilutions, at 1 hpi cells were overlayed with CMC/media. At 48 hpi cells were fixed and stained with toluidine blue. To western blot: Pellets were lysed and run on SDS-PAGE gel. Proteins were transferred overnight to nitrocellulose membranes. Membranes were probed for HSV-1 ICP0 and VP16 proteins and Tubulin as a control.
For HSV-1 infections HaCaT cells were infected with HSV-1 at a multiplicity of infection (MOI) of 10 diluted in appropriate medium. At 1 hour post infection (hpi) medium was removed, cells were washed twice with phosphate-buffered saline (PBS), and fresh medium was added with or without inhibitors. At 16 hpi cells were either harvested for western blot or virus titre by plaque assay.
(§4) Cell lysate preparation and western blots were performed as described in Ren et al. (J Gen Virol. 2012 February; 93 (Pt 2): 319-329). […] Quantification was performed using LI-COR Image Studio Software.
For orientation: Immunoblotting shows a protein as a band on a membrane.

The next data set deals with Zika American Strain. Kind of data set: Western blot of Zika E protein in VERO E6 cells, American strain. Format: cell-based, Zika virus. Conditions: 20 μM, MOI >10, 48 hrs. As to the method:
as §1, §2, §3

Another data set deals with MAT2A. Kind of data set: Western blot of cellular MAT2A expression in BKPyV infected RPTE/TERT1 cells. To be noted: 10 μM; BKPyV MOI 3; 48 hpi; normalised to tubulin. Format: cell-based, human. As to the method:
(C)(i) Effect of PF-9366 on viral early and late gene and cellular MAT2A expression: Cells were infected with BKPyV (MOI 3) in media containing appropriate drug concentrations. At 1 hpi infectious media was removed, cells were washed and fresh media with appropriate drug concentrations was added. Cells were harvested at 48 hpi and a western blot performed. Membranes were blotted for viral late gene VP1, LTAg, cellular MAT2A/MAT1A, and tubulin as a loading control.
(ii) Cellular MAT2A expression increases at lower PF-9366 concentrations: The density of MAT2A expression (lower western blot band) was measured, normalized to tubulin loading control (LiCor Image Studio Software), n=3.
It has previously been noted by Quinlan et al. (Nat Chem Biol. 2017 13 (7): 785-792) that treatment with PF-9366 can increase MAT2A expression as a compensatory mechanism within cells. […] At 48 hpi cells were harvested and protein expression was analysed by western blotting (FIG. 3C(i)). MAT2A expression was quantified from band intensities, normalised to the tubulin loading control and plotted (FIG. 3C(ii), n=3). […]
as §4

Data set [2] relates to Semliki Forest Virus 4 (SFV4). Kind of data set: SFV4 titre by plaque assay (BHK-21 cells infected, titrated on BSR cells). To be noted: 2 μM, MOI >10, 24 hrs, initial tests. Type of data set: cell-based. As to the method: (A) SINV and SFV4: BHK-21 cells were plated. The following day 2 μM PF-9366 or DMSO control was added to media. After 3 hrs cells were infected with SINV or SFV4 (MOI >10). After 24 hrs cells were harvested by scraping. Cells were either pelleted for western blot or freeze/thawed for titration. To titre: BSR cells were plated and the following day infected with 10-fold dilutions, at 1 hpi cells were overlayed with LMA in 2×MEM (+5% FCS). At 72 hpi cells were fixed and stained with toluidine blue.
For Alphavirus infections BHK-21 cells were infected with either SINV or SFV-4 at a multiplicity of infection (MOI) greater than 10, diluted in appropriate medium. At 1 hour post infection (hpi) medium was removed, cells were washed twice with phosphate-buffered saline (PBS), and fresh medium was added. At 24 hpi supernatants were harvested for virus titre by plaque assay.
For SINV and SFV4, confluent BSR cell monolayers were infected with 10-fold dilutions of samples. At 1 hpi cells were overlayed with low melting-point agarose in 2×MEM (+5% FCS). Cells were fixed at 72 hpi and stained with toluidine blue, allowing plaques to be counted.
TSG101 inhibitor Ilaprazole (Sigma-Aldrich) was diluted in 100% DMSO. […]

We go through two molecules from patent US20250221981A1, “MAT2A INHIBITOR AND/OR TSG101 INHIBITOR FOR USE IN ANTIVIRAL THERAPY” (CAMBRIDGE ENTERPRISE LIMITED, priority 2022, published 2025).

With `COc1ccc(-c2c(Nc3ccccn3)[nH]c3c(C4=CCCCC4)c(-c4ccccc4)nn3c2=O)cc1` [AG-270], the “effect on cell viability and metabolism” value is reported as “little effect” in the data set on RPTE/hTERT cells (MAT2A inhibitor (AG270 1 μM, AZ33 125 nM) in combination with Ilaprazole (5 μM), until 144 hr) and “little effect” in the data set on RPTE/hTERT cells (at concentrations inhibiting BKPyV replication, 48 hrs).
As for `CN(C)CCc1nnc2cc(-c3ccccc3)c3cc(Cl)ccc3n12` [PF-9366], in the data set with Zika African strain, the “viral protein expression (Zika E protein), African strain” value was “reduction”. Also, the “impact on viral protein expression (ICP0 and VP16)” value in data set [1] is reported as “little impact”. In addition, the “viral protein expression (Zika E protein), American strain” value in the data set on Zika American Strain is recorded as “reduction”. The “increase in the cellular expression of MAT2A” value in the data set with MAT2A is given as 8 fold. In addition, the “reduction in viral titre (SFV4)” value in data set [2] is on record as 7-10 fold.
